{
  "source": "patent US20220016048A1",
  "about": "“CANNABIDIOL-TYPE CANNABINOID COMPOUND” (GW Research Limited, priority 2018, published 2022)",
  "key": {"Rat micronucleus assay": {"assay": "Rat micronucleus assay", "type": "in vivo", "conditions": "Sprague Dawley, rat, in vivo; male rats, oral gavage; read-out: estimate of the maximum tolerated dose", "method": "(§1) CBD-C4 was tested for its potential to induce micronuclei (MN) in the polychromatic erythrocytes (PCE) of the bone marrow of treated rats to induce DNA damage in the liver of the same animals.\n(§2) CBD-C4 was administered at a dose of 125, 250 and 500 mg/kg/day during this study. Vehicle and a positive control of ethyl methanesulfonate (EMS) at a dose of 150 mg/kg/day were tested alongside the CBD-C4.\n(§3) A range finding study was performed on 9 male young adult out-bred Sprague Dawley rats justifying the chosen dose levels of CBD-C4 used during the study.\n(§4) Animals were allocated into groups of six with the exception of the positive control which comprised three animals.\n(§5) Rats were dosed by oral gavage with test article suspended in sesame oil, vehicle (sesame oil) or positive control.\n(§6) Blood samples were taken for bioanalysis and tissue samples were removed from animals at necropsy from the liver and femur.\n(§7) Bone marrow sampling, micronucleus slide preparation and comet cell suspensions were undertaken to determine level of toxicity of CBD-C4."}, "[1]": {"tested_on": "polychromatic erythrocytes (PCE) of the bone marrow", "assay": "Rat micronucleus assay", "type": "in vivo", "method": "as §1, §2, §3, §4, §5, §6, §7"}, "[2]": {"assay": "13-week oral toxicity study in rats", "type": "in vivo, rat", "conditions": "both sexes, rat, in vivo", "method": "(§8) The objective of the study was to determine the toxicity of CBD-C4 following daily oral (gavage) administration to the rat for 4 and 13 weeks. The toxicokinetic profile of the CBD-C4 was also assessed.\n(§9) Groups of 10 male and 10 female rats were doses at 1, 10 and 100 mg/kg/day for either 4 or 13 weeks.\n(§10) Assessment of toxicity of CBD-C4 was based on mortality, clinical observations, post-dose observations, body weights, food consumption, ophthalmic observations, clinical and anatomic pathology.\n(§11) Blood samples were collected on days 1 and 28 and week 13 of the study."}, "rats": {"tested_on": "rats", "assay": "13-week oral toxicity study in rats", "type": "in vivo, rat", "method": "as §8, §9, §10, §11"}, "[3]": {"assay": "Embryo-foetal development study in rats", "type": "in vivo, rat", "conditions": "female, Wistar (Han), rat, in vivo", "method": "(§12) The objective of the study was to determine the effects of CBD-C4 on the embryonic and foetal development of the rat. The toxicokinetic profile of CBD-C4 was also assessed.\n(§13) Three groups of 20 time-mated female Wistar (Han) rats were given CBD-C4 once daily by the oral (gavage) route from Day 6 to Day 17 of gestation at dose levels of 1, 10 or 100 mg/kg/day (at a constant dose volume of 5 mL/kg), to cover the period of organogenesis.\n(§14) A similar group of rats was given the vehicle, sesame oil, following the same regimen to act as controls.\n(§15) Blood samples were taken for toxicokinetic evaluation at pre-dose, 1, 2, 4, 6 and 24 hours after dosing on Days 6 and 17 of gestation. Clinical observations, body weight and food consumption were recorded. On Day 21 of gestation (GD 21) the females were euthanised, and the progress and outcome of pregnancy was evaluated.\n(§16) Foetuses were evaluated for external, visceral and skeletal malformations and […]"}, "[4]": {"tested_on": "pregnant Wistar (Han) rats", "assay": "Embryo-foetal development study in rats", "type": "in vivo, rat", "method": "as §12, §13, §14, §15, §16"}, "[5]": {"assay": "Toxicokinetic evaluation in embryo-foetal development study", "type": "in vivo, rat", "method": "as §13, §15"}, "[6]": {"conditions": "1, 10 or 100 mg/kg/day oral gavage, 4 or 13 weeks"}, "[7]": {"conditions": "1, 10 or 100 mg/kg/day oral, GD 6-17"}},
  "note": "“Also recorded” adds a separate entry of the source. Where two headings read alike, the source gives them in different places.",
  "data": [
    {"smiles": "C=C(C)[C@@H]1CCC(C)=C[C@H]1c1c(O)cc(CCCC)cc1O", "note": "[CBD-C4, (1′R,2′R)-4-butyl-5′-methyl-2′-(prop-1-en-2-yl)-1′,2′,3′,4′-tetrahydro-[1,1′-biphenyl]-2,6-diol]", "values": [
      {"measurement": "MTD", "setting": "Rat micronucleus assay", "result": "~500", "unit": "mg/kg/day"},
      {"measurement": "bone marrow toxicity", "setting": "[1]; 125, 250 and 500 mg/kg/day oral gavage", "result": "no evidence of test article related bone marrow toxicity"},
      {"measurement": "micronucleus PCE frequencies", "setting": "[1]; all doses (125, 250 and 500 mg/kg/day) oral gavage", "result": "comparable with the vehicle control group"},
      {"measurement": "induction of micronuclei in polychromatic erythrocytes of the bone marrow", "setting": "[1]; male rats treated up to 500 mg/kg/day", "result": "did not induce an increase in micronuclei; also recorded: No genotoxicity was observed"},
      {"measurement": "NOAEL at 13 weeks", "setting": "[2]; 13-week daily oral gavage, rats", "result": 100, "unit": "mg/kg/day"},
      {"measurement": "NOAEL at 13 weeks", "setting": "[2]; 13-week oral, sesame oil formulation, rats (summary)", "result": 100, "unit": "mg/kg"},
      {"measurement": "clinical pathology parameters", "setting": "rats; [6]", "result": "no adverse changes"},
      {"measurement": "clinical signs", "setting": "rats; [6]", "result": "no adverse clinical signs"},
      {"measurement": "food consumption, body weight, body weight gains and ophthalmoscopy", "setting": "rats; [6]", "result": "unaffected"},
      {"measurement": "test article-related deaths", "setting": "rats; [6]", "result": "no test article-related deaths"},
      {"measurement": "tolerability", "setting": "rats; [6]", "result": "well tolerated"},
      {"measurement": "liver findings", "setting": "rats; after 4 and 13 weeks of treatment, predominantly at 100 mg/kg/day, considered non-adverse", "result": "Large livers with correlating organ weight increase and centrilobular hypertrophy"},
      {"measurement": "NOAEL", "setting": "[3]; oral, embryo-foetal development study, sesame oil formulation (summary), read-out: NOAEL", "result": 100, "unit": "mg/kg"},
      {"measurement": "NOAEL", "setting": "[3]; oral gavage GD 6-17, read-out: NOAEL for maternal and embryo-foetal toxicity", "result": 100, "unit": "mg/kg/day"},
      {"measurement": "mean body weight of females", "setting": "[4]; 1 mg/kg/day", "result": "unaffected"},
      {"measurement": "foetal malformations", "setting": "[4]; 10 mg/kg/day, different organ systems, no developmental pattern", "result": "two foetuses with malformations"},
      {"measurement": "mean food consumption", "setting": "[4]; 100 mg/kg/day, two days after the start of dosing, compared with controls", "result": "Lower mean food consumption"},
      {"measurement": "CBD-C4-related foetal malformations", "setting": "[4]; 1, 10 or 100 mg/kg/day", "result": "no CBD-C4-related foetal malformations"},
      {"measurement": "mean foetal weight and percentage of male foetuses", "setting": "[4]; 1, 10 or 100 mg/kg/day", "result": "no effect"},
      {"measurement": "pregnancy parameters (number of implantations, pre- or post-implantation losses, number of live foetuses)", "setting": "[4]; 1, 10 or 100 mg/kg/day", "result": "no effect"},
      {"measurement": "mortality", "setting": "[4]; [7]", "result": "no mortality"},
      {"measurement": "treatment-related clinical observations", "setting": "[4]; [7]", "result": "no treatment-related clinical observations"},
      {"measurement": "mean food consumption", "setting": "[4]; 1 or 10 mg/kg/day", "result": "unaffected"},
      {"measurement": "mean body weight of females", "setting": "[4]; 10 or 100 mg/kg/day, one day after the start of dosing on Day 6 of gestation", "result": "Dose-related mean body weight loss"},
      {"measurement": "foetal variations", "setting": "[4]; any of the groups maternally dosed", "result": "no noteworthy foetal variations"},
      {"measurement": "tolerability", "setting": "[4]; dose levels up to 100 mg/kg/day, pregnant rats", "result": "well tolerated"},
      {"measurement": "foetal malformations", "setting": "[4]; maternally dosed at 1 or 100 mg/kg/day", "result": "no malformations"},
      {"measurement": "extent of accumulation (exposure after 12 daily doses vs single dose)", "setting": "[5]; 1 mg/kg/day", "result": "approximately 5 fold"},
      {"measurement": "extent of accumulation (exposure after 12 daily doses vs single dose)", "setting": "[5]; 100 mg/kg/day", "result": "~2", "unit": "fold"},
      {"measurement": "time of maximum plasma concentration post dose", "setting": "[5]; GD 6, 1 mg/kg/day oral", "result": 2, "unit": "h"},
      {"measurement": "time of maximum plasma concentration post dose", "setting": "[5]; GD 6, higher dose levels (10, 100 mg/kg/day) oral", "result": 6, "unit": "h"},
      {"measurement": "time of maximum plasma concentration post dose", "setting": "[5]; GD 17, after 12 daily doses, all dose levels", "result": 4, "unit": "h"},
      {"measurement": "plasma levels 24 hours after dosing", "setting": "[5]; both higher dose levels (10, 100 mg/kg/day)", "result": "quantifiable levels of CBD-C4 remained in plasma"},
      {"measurement": "increases in exposure (Cmax and AUC(0-t)) relative to the increase in dose", "setting": "[5]; both sampling occasions (GD 6, GD 17)", "result": "supra-proportional"},
      {"measurement": "time to complete elimination from plasma after dosing", "setting": "[5]; lowest dose level (1 mg/kg/day), both sampling occasions", "result": "≤ 24", "unit": "h"}
    ]}
  ]
}
